# Tested on: Epiderm construct
# Test: Viability of constructs with additives in culture medium before and after vitrification
# Type: cell-based, Human
# Details: added to culture medium before and after vitrification, αT and QVD together
# Experimental: Resazurin Assay: Was used to measure the metabolic activity and has the advantage of being non-toxic so constructs can be assessed before and several times after treatment. Resazurin dye (alamarBlue) was used to assess cell viability by measuring the oxidation/reduction reactions that take place within cells. The dye is added directly to the culture wells and the plates were incubated for 3 hours at 37° C. Upon reduction, the dye changes color and this was measured and quantified using a fluorescent microplate reader at an excitation wavelength of 544 nm and an emission wavelength of 590 nm.
# The initial vitrification protocol was one that was developed for use with vein segments and rings. The process uses a 6 step (15-minute incubation) protocol to add the cryoprotectant (CPA) solution into the construct. The insert is then left in a glass scintillation vial in 1.5 mL vitrification solution with 0.3 mL solution inside the insert. The vials are cooled rapidly to −100° C. then slowly cooled to −135° C. where they are stored until rewarming. During rewarming, the samples are warmed slowly to −100° C. then rapidly to room temperature. The vitrification solution is removed using 7 sequential removal steps at 15 minutes each (FIG. 4, original protocol). Several changes were made to this protocol to produce better and sustainable viability for the Epiderm construct.
# A series of changes were made to how the vitrification solution was loaded and unloaded from the construct. These changes included shorter incubation steps (5 minutes instead of 15), using a lower concentration of cryoprotectant to load the full-strength vitrification solution into the construct and also a more mechanical change that involved dilution of the full strength vitrification solution to half its concentration by a simple dilution step as opposed to removal from one solution to the next. This shortened the amount of time that the construct was exposed to the full-strength vitrification solution reducing potential cytotoxicity caused by exposure to the vitrification solution (modified protocol).
# The arrived at protocol starts with an overnight incubation with αT and QVD. The next day, the constructs are vitrified using the 6-step addition protocol, 5 minutes each step, to add the cryoprotectant (CPA) solution into the construct. The insert is then left in the final vitrification solution with 0.3 mL solution inside the insert. The vials are cooled rapidly to −100° C. then slowly cooled to −135° C. where they are stored until rewarming. During rewarming, the samples are warmed slowly to −100° C. then rapidly to room temperature. The vitrification solution is removed using 7 sequential removal steps at 5 minutes each. […]
Structure (SMILES),Effect of additive on construct viability,Effect of additive on construct viability (listed as QVD),Effect of additive on construct viability (listed as αT)
"CC(C)[C@H](NC(=O)c1ccc2ccccc2n1)C(=O)N[C@@H](CC(=O)O)C(=O)COc1c(F)cccc1F [Q-VD-OPH, quinoline-Val-Asp-difluorophenoxymethyl ketone]",improved viability,significant improvement,–
Cc1c(C)c2c(c(C)c1O)CC[C@@](C)(CCC[C@H](C)CCC[C@H](C)CCCC(C)C)O2 [α-tocopherol],improved viability,–,significant improvement

# Source: US20230149919A1, “CASSETTE FOR PRESERVATION OF NATURAL AND BIOENGINEERED TISSUES” (TISSUE TESTING TECHNOLOGIES LLC, priority 2021, published 2023)
